Reference: patent US8252899B2, “Methods and compositions for obtaining high-resolution crystals of membrane proteins” (The Scripps Research Institute, priority 2007, dated 2012)

Legend:
β2AR-T4L [1] = conditions: for λmax ± SD for β2AR-T4L: bimane emission, excitation 350 nm, saturating ligand; for λmax ± SD for β2AR-T4L / Intensity at λmax Ligand/Intensity at λmax none, β2AR-T4L: 15 min incubation; for Intensity at λmax Ligand/Intensity at λmax none, β2AR-T4L: bimane fluorescence, ratio to no-ligand control
wild-type β2AR = wild-type β2AR (Homo sapiens, UniProt P07550); assay: Saturation binding of [3H]DHA to membranes from Sf9 cells expressing wild-type β2AR
β2AR-T4L [2] = assay: Saturation binding of [3H]DHA to membranes from Sf9 cells expressing β2AR-T4L; design: species or system human
Protocol: FIG. 15. Affinity curves for adrenergic ligands binding to β2AR-T4L and wildtype β2AR. […] Binding experiments on membranes isolated from Sf9 insect cells expressing the receptors were performed as described above.
Membrane preparation from baculovirus-infected Sf9 cells was performed as described previously (Swaminath, et al., Mol Pharmacol 61, 65 (2002)). For each binding reaction, membranes containing 0.7 μg total membrane protein were used. Saturation binding of [^3H]-dihydroalprenolol (DHA) was measured by incubating membranes resuspended in 500 μl binding buffer (75 mM Tris, 12.5 mM MgCl2, 1 mM EDTA, pH 7.4, supplemented with 0.4 mg/ml BSA) with 12 different concentrations of [^3H]DHA (Perkin Elmer) between 20 pM and 10 nM. After 1 h incubation with shaking at 230 rpm, membranes were filtered from the binding reactions with a Brandel harvester, washed with binding buffer, and measured for bound [^3H]DHA with a Beckman LS6000 scintillation counter. […] For competition binding, membranes resuspended in 500 μl binding buffer were incubated with 0.5 nM [^3H]DHA plus increasing concentrations of the competing ligand (all compounds were purchased from Sigma). […] Each data point in the curves in FIGS. 2A and S1 represents the mean of three separate experiments, each done in triplicate. Binding data were analyzed by nonlinear regression analysis using Graphpad Prism.

[3] = molecular target: β2AR Val114^3.33 to alanine mutant (Homo sapiens, UniProt P07550, V114A); conditions: Chelikani et al. 2007; cited from earlier work

Structure (SMILES)	ligand-induced change of bimane fluorescence (in words), β2AR-T4L (β2AR-T4L [1])	λmax ± SD for β2AR-T4L (β2AR-T4L [1]) [nm]	Intensity at λmax Ligand/Intensity at λmax none, β2AR-T4L (β2AR-T4L [1])	also measured
CC(C)NC[C@H](O)c1ccc(O)c(O)c1 [(−)-isoproteronol, (−)-isoproterenol]	qualitatively similar decrease in intensity and rightward shift in λmax	455 ± 2	0.824 ± 0.006	–
CC(C)(C)NCC(O)c1ccc(O)c(CO)c1 (centres unmarked) [salbutamol]	larger responses	449 ± 1	0.928 ± 0.009	–
CCCc1ccccc1OCC(O)CNC(C)C (centres unmarked) [[^3H]DHA, [^3H]-dihydroalprenolol]	–	–	–	Bmax (wild-type β2AR): 30.0 ± 0.5 pmol/mg; Kd (wild-type β2AR; read-out: Kd ± SE): 0.161 ± 0.012 nM; affinity for β2AR-T4L relative to wild-type β2AR (saturation binding) (β2AR-T4L [2]): wild-type affinity; Kd (β2AR-T4L [2]; saturation binding, β2AR-T4L, Sf9 membranes, read-out: Kd ± SE): 0.18 ± 0.016 nM
CNC[C@H](O)c1ccc(O)c(O)c1 [(−)-epinephrine]	–	–	–	lowering of affinity by Val114 to alanine mutation [3]: 300 fold
